Measurements: patent US6348609B1, “Method for obtaining an oil that is rich in hydroxyoctadecadienoic fatty acids (HODE) or the esters thereof from a mixture containing linoleic acid or the esters thereof” (Laboratoires Arkopharma, priority 1999, dated 2002)

What was measured:
human adipocytes = experiment: production of cAMP in human adipocytes (lipolysis activation); format: cell-based
Text: The aim of this study is to study the effect of 9-HODE on the production of cAMP (cyclic adenosine monophosphate) which is a lipolysis activator, in human adipocytes. The effect of 9-HODE is studied relative to that of adrenaline and caffeine which are two molecules that are known for their lipolysis-stimulating effects.

[1] = skin penetration in vitro on human skin with Franz cells; format: in vitro ADME
Description: A study of skin penetration is carried out in vitro on human skin with Franz cells. These cells comprise a surface area of human skin of 1.76 cm^2 on which is placed 800 μg of 9-HODE. After 6 hours of contact, an assay of the 9-HODE is carried out by gas chromatography at the surface of the human skin sample, in the epidermis, in the dermis and in the receiving phase.

[2] = 9-HODE 10^−4 M, human adipocytes
[3] = 800 μg on 1.76 cm^2 human skin, after 6 hours of contact

9-HODE assayed at the surface of the skin [1, 3] [%] | 9-HODE assayed in the dermis [1, 3] [%] | 9-HODE assayed in the epidermis [1, 3] [%] | 9-HODE assayed in the receiving phase [1, 3] [%] | skin-penetrating power ([1]; human skin, Franz cells) | Structure (SMILES) | concentration of cAMP, times greater than that obtained with caffeine (human adipocytes; 9-HODE 10^−3 M, human adipocytes) [times] | increase in cAMP relative to adrenaline (human adipocytes; [2]) | increase in cAMP relative to caffeine (human adipocytes; [2]) | concentration of cAMP (human adipocytes; 9-HODE concentration of 10^−3 M, human adipocytes) | conclusion on lipolysis activation in vitro (human adipocytes; in vitro, by stimulating production of cAMP by adipocytes) | concentration of cAMP (human adipocytes; caffeine comparator, concentration not given, human adipocytes)
33 | 32 | 11 | 24 | high skin-penetrating power | CCCCCC=CC=CC(O)CCCCCCCC(=O)O (centres unmarked) [9-HODE, 9-hydroxy-10,12-octadecadienoic acid] | 10 | greater than that obtained, irrespective of the concentration, by adrenaline | equivalent to that of caffeine 10^−3 M | 7.940 femtomol of cAMP/million adipocytes | powerful lipolysis activator | –
– | – | – | – | – | Cn1c(=O)c2c(ncn2C)n(C)c1=O [caffeine, reference compound] | – | – | – | – | – | 799 femtomol of cAMP/million adipocytes
